Test system: Testosterone
Assay: Testosterone level in blood (serum CLIA) after repeated sc PEP-1
Assay type: in vivo, SD rats
Description: PEP-1 (peptide of SEQ ID NO: 1), lyophilized white powder, obtained according to the method mentioned in example 1 was dissolved in 0.9% of saline, considering the correction factor of PEP-1 (purity: 94.13%, content: 92.36%, correction factor: 1.15). 50 mg/mL stock solution was further diluted into 20 mg/mL, 2 mg/mL, and 1 mg/mL with 0.9% saline, and stored at 4° C. for a week until the use.
The purpose of this example is to confirm the change of sexual hormones in blood from SD rats with 7 days repeated daily administration of SEQ ID NO: 1 peptide, PEP-1. This experiment followed the Ethics Regulation of Animal Test by KAMSI Inc. (Korea Animal Medical Science Institute). In addition, this experiment, Non-GLP experiment, referred to the MFDS (Ministry of Food and Drug Safety) notification; Agent 2013-40 (5th April 2013), Principles of Good Laboratory Practice (1997).
SPF Rats (Crlj:CD(SD)) were purchased from ORIENTBio Inc. (Mokdong-ri, Buk-myeon, Gapyeong-gun, Gyeonggi-do, Republic of Korea). 75 male (6.5 weeks old and 190˜210 g) and 75 female (6.5 weeks old and 160˜180 g) rats were monitored for 4 days, and 64 of male and female rats (each) were selected for the experiment. Raising condition is as follows; 23±3° C. of temperature, […] of relative humidity, 10˜20 times/hr of number of air changes, 12 hours (8 a.m.˜8 p.m.) of lighting with 150˜300 Lux of intensity.
64 male and female […] (mentioned above) were divided into 8 groups. Administration regimen, for example, drugs, routes, dosages, and volumes were as follows:
The detailed administration regimen is as follows; once a day, twice a day and twice a week in each experimental group. Injection initiated at 10 a.m. every day, and each rat was injected at one minute intervals. Rats in Group 9, 10, 13 and 14 were injected twice a week. Administration of high dose test agent preceded that of low dose. The volume of injection was calculated using recently measured weight of rats, and it was 5 mL/kg. Subcutaneous injection was performed as follows; assistant tilted the back of rat upward, and experimenter sterilized the back of rat with 70% alcohol, followed by subcutaneous injection of test agent with 26 G syringe.
1.4 mL of blood sample (0.7 mL of serum) was collected after measurement of weight (Day 0). Next day (1 Day), 1.4 mL of blood sample (0.7 mL of serum) was collected twice after injection of test agent (4 hrs and 8 hrs after administration of test agent). For next 6 days (Day 2˜Day 7), 1.4 mL of blood was extracted once everyday (4 hours after injection of test agent). Dose and volume of test agent of each group followed the Table 3, and injection time zone was same every day. Blood was extracted from the jugular vein, and left at room temperature for 30 minutes. Serum was separated using centrifugation (10,000 rpm for 5 minutes), and stored at −70±5° C. in Deep freezer until the use. Blood extraction from each subject was done in the same time zone every day.
A CLIA (Chemi-Luminescence Immune Assay) Kit was used to analyze Testosterone, Estradiol E2, FSH (Follicle stimulating hormone), and LH (Luteinizing hormone). Analysis was completed within 48 hrs after blood extraction (Laboratory Medicine Department, Chung-Ang University Hospital), and detailed method is as follows; One-way ANOVA was used to verify the comparison between the vehicle and PEP-1, and between different doses of PEP-1. For further analysis, Duncan test was used as parametric test and Dunnett's test as non-parametric test. p<0.05 represents the statistical significance, and all statistical analysis was carried out with SPSS 10.1.
Testosterone was analyzed using the samples prepared from example 2. 15 μL of serum was used for analysis. Fundamentals of analysis is competitive immunoassay based on direct chemi-luminescent. As mentioned in example 2, CLIA (Chemi-luminescence immune assay) Kit was used for Testosterone analysis, following the manufacture's protocol. […]

## EARPALLTSRLRFIPK (listed as Homo sapiens) [PEP-1, hormone secretion modulator / GnRH analog]
G3 Female 5 mg/kg sc 1/day x7, 7 days
  Testosterone level in blood: 2.91 ng/dL
G4 Male 5 mg/kg sc 1/day x7, 4 hr
  Testosterone level in blood: 0.12 ng/dL
G4 Male 5 mg/kg sc 1/day x7, 8 hr
  Testosterone level in blood: 0.06 ng/dL
G4 Male 5 mg/kg sc 1/day x7, 2 days
  Testosterone level in blood: 0.04 ng/dL
G4 Male 5 mg/kg sc 1/day x7, 3 days
  Testosterone level in blood: 0.06 ng/dL
G4 Male 5 mg/kg sc 1/day x7, 4 days
  Testosterone level in blood: 0.15 ng/dL
G4 Male 5 mg/kg sc 1/day x7, 5 days
  Testosterone level in blood: 0.13 ng/dL
G4 Male 5 mg/kg sc 1/day x7, 6 days
  Testosterone level in blood: 0.19 ng/dL
G4 Male 5 mg/kg sc 1/day x7, 7 days
  Testosterone level in blood: 0.19 ng/dL
G4 Male 5 mg/kg sc 1/day x7, pre
  Testosterone level in blood: 0.2 ng/dL
G6 Male 10 mg/kg sc 1/day x7, 4 hr
  Testosterone level in blood: 0.15 ng/dL
G6 Male 10 mg/kg sc 1/day x7, 8 hr
  Testosterone level in blood: 0.01 ng/dL
G6 Male 10 mg/kg sc 1/day x7, 2 days
  Testosterone level in blood: 0.01 ng/dL
G6 Male 10 mg/kg sc 1/day x7, 3 days
  Testosterone level in blood: 0.05 ng/dL
G6 Male 10 mg/kg sc 1/day x7, 4 days
  Testosterone level in blood: 0.12 ng/dL
G6 Male 10 mg/kg sc 1/day x7, 5 days
  Testosterone level in blood: 0.1 ng/dL
G6 Male 10 mg/kg sc 1/day x7, 6 days
  Testosterone level in blood: 0.12 ng/dL
G6 Male 10 mg/kg sc 1/day x7, 7 days
  Testosterone level in blood: 0.11 ng/dL
G6 Male 10 mg/kg sc 1/day x7, pre
  Testosterone level in blood: 0.13 ng/dL
G8 Male 10 mg/kg sc 2/day x4, 4 hr
  Testosterone level in blood: 0.12 ng/dL
G8 Male 10 mg/kg sc 2/day x4, 8 hr
  Testosterone level in blood: 0.04 ng/dL
G8 Male 10 mg/kg sc 2/day x4, 2 days
  Testosterone level in blood: 0.01 ng/dL
G8 Male 10 mg/kg sc 2/day x4, 3 days
  Testosterone level in blood: 0.07 ng/dL
G8 Male 10 mg/kg sc 2/day x4, 4 days
  Testosterone level in blood: 0.05 ng/dL
G8 Male 10 mg/kg sc 2/day x4, 5 days
  Testosterone level in blood: 0.18 ng/dL
G8 Male 10 mg/kg sc 2/day x4, 6 days
  Testosterone level in blood: 0.08 ng/dL
G8 Male 10 mg/kg sc 2/day x4, 7 days
  Testosterone level in blood: 0.12 ng/dL
G8 Male 10 mg/kg sc 2/day x4, pre
  Testosterone level in blood: 0.17 ng/dL
G9 Female 10 mg/kg sc 2/week x2 (days 1,7), 4 hr
  Testosterone level in blood: 7.92 ng/dL
G9 Female 10 mg/kg sc 2/week x2 (days 1,7), 8 hr
  Testosterone level in blood: 7.57 ng/dL
G9 Female 10 mg/kg sc 2/week x2 (days 1,7), 2 days
  Testosterone level in blood: 0.9 ng/dL
G9 Female 10 mg/kg sc 2/week x2 (days 1,7), 3 days
  Testosterone level in blood: 1.05 ng/dL
G9 Female 10 mg/kg sc 2/week x2 (days 1,7), 4 days
  Testosterone level in blood: 1.21 ng/dL
G9 Female 10 mg/kg sc 2/week x2 (days 1,7), 5 days
  Testosterone level in blood: 1.73 ng/dL
G9 Female 10 mg/kg sc 2/week x2 (days 1,7), 6 days
  Testosterone level in blood: 1.67 ng/dL
G9 Female 10 mg/kg sc 2/week x2 (days 1,7), 7 days
  Testosterone level in blood: 9.43 ng/dL
G9 Female 10 mg/kg sc 2/week x2 (days 1,7), pre
  Testosterone level in blood: 2.3 ng/dL
G10 Male 10 mg/kg sc 2/week x2 (days 1,7), 4 hr
  Testosterone level in blood: 0.16 ng/dL
G10 Male 10 mg/kg sc 2/week x2 (days 1,7), 8 hr
  Testosterone level in blood: 0.02 ng/dL
G10 Male 10 mg/kg sc 2/week x2 (days 1,7), 2 days
  Testosterone level in blood: 0 ng/dL
G10 Male 10 mg/kg sc 2/week x2 (days 1,7), 3 days
  Testosterone level in blood: 0.06 ng/dL
G10 Male 10 mg/kg sc 2/week x2 (days 1,7), 4 days
  Testosterone level in blood: 0.17 ng/dL
G10 Male 10 mg/kg sc 2/week x2 (days 1,7), 5 days
  Testosterone level in blood: 0.08 ng/dL
G10 Male 10 mg/kg sc 2/week x2 (days 1,7), 6 days
  Testosterone level in blood: 0.1 ng/dL
G10 Male 10 mg/kg sc 2/week x2 (days 1,7), 7 days
  Testosterone level in blood: 0.13 ng/dL
G10 Male 10 mg/kg sc 2/week x2 (days 1,7), pre
  Testosterone level in blood: 0.15 ng/dL
G11 Female 100 mg/kg sc 1/day x7, 4 hr
  Testosterone level in blood: 7.73 ng/dL
G11 Female 100 mg/kg sc 1/day x7, 8 hr
  Testosterone level in blood: 7.41 ng/dL
G11 Female 100 mg/kg sc 1/day x7, 2 days
  Testosterone level in blood: 3.92 ng/dL
G11 Female 100 mg/kg sc 1/day x7, 3 days
  Testosterone level in blood: 1.55 ng/dL
G11 Female 100 mg/kg sc 1/day x7, 4 days
  Testosterone level in blood: 0.63 ng/dL
G11 Female 100 mg/kg sc 1/day x7, 5 days
  Testosterone level in blood: 0.55 ng/dL

Source: patent US10561703B2, “Method of modulating sex hormone levels using a sex hormone secretion modulator” (GEMVAX & KAEL CO., LTD., priority 2013, dated 2020)
